Literature values, collected in patent US20160175250A1, “Method for Making Liposomes Containing an Active Pharmaceutical Ingredient” (Tolmar Inc., priority 2014, published 2016).

Details: patients receiving doses greater than 550 mg per square meter of body area

COc1cccc2c1C(=O)c1c(O)c3c(c(O)c1C2=O)C[C@@](O)(C(=O)CO)C[C@@H]3O[C@H]1C[C@H](N)[C@H](O)[C@H](C)O1 [doxorubicin, Doxorubicin]
congestive heart failure from cumulative dose dependent irreversible cardiomyopathy, share of patients: 1-10%
